The source of these data is patent publication US20110281883A1, “4-Phenyl-pyrane-3,5-diones, 4-Phenyl-thiopyrane-3,5-diones and Cyclohexanetriones and Their Use as Insecticides, Acaricides and/or Fungicides” (Bayer Cropscience AG, priority 2009, published 2011).

One may read the mortality as the percentage killed. By melting point is commonly meant the temperature, or range, at which the solid turns liquid.

The test system of data set [1] is mustard beetle larvae (Phaedon cochleariae). Put plainly: Phaedon cochleariae test (PHAECO spray application). The format is in vivo. The conditions noted are these: 168 h, application rate 500 g/ha, sprayed Chinese cabbage (Brassica pekinesis) leaf-disks, after 7 days, read-out: mortality in % (good activity). Here is the method:
Phaedon cochleariae—Test; (PHAECO Spray Application)
Solvent: 78.0 parts by weight of acetone • • 1.5 parts by weight of dimethylformamide
Emulsifier: 0.5 parts by weight of alkylaryl polyglycolether
To produce a suitable preparation of active compound, 1 part by weight of active compound is mixed with the stated amount of solvent and emulsifier, and the concentrate is diluted with emulsifier-containing water to the desired concentration.Chinese cabbage (Brassica pekinesis) leaf-disks are sprayed with a preparation of the active ingredient of the desired concentration. Once dry, the leaf disks are infested with mustard beetle larvae (Phaedon cochleariae). After 7 days mortality in % is determined. 100% means that all beetle larvae have been killed and 0% means that none of the beetle larvae have been killed.

The subject of data set [2] is two spotted spidermite (Tetranychus urticae), OP-resistant. Put plainly: Tetranychus urticae test; OP-resistant (TETRUR spray application). The format is in vivo. The settings on record: in Phaseolus vulgaris, 144 h, read-out: mortality in % (good activity). Here is the method: Tetranychus urticae—Test; OP-Resistant (TETRUR Spray Application)
Solvent: 78.0 parts by weight acetone • 1.5 parts by weight dimethylformamide
Emulsifier: 0.5 parts by weight alkylarylpolyglcolether
To produce a suitable preparation of active compound, 1 part by weight of active compound is mixed with the stated amount of solvent and emulsifier, and the concentrate is diluted with emulsifier-containing water to the desired concentration.French beans (Phaseolus vulgaris) which are heavily infested with all stages of the two spotted spidermite (Tetranychus urticae), are sprayed with a preparation of the active ingredient at the desired concentration. After 6 days mortality in % is determined. 100% means that all spider mites have been killed and 0% means that none of the spider mites have been killed.

Turning to `CCc1ccc(-c2ccc(Cl)cc2)cc1C1=C(O)C(C)(C)C(=O)C(C)(C)C1=O` [Compound B-1], the mortality at 500 g/ha in data set [1] was over 80%. Moreover, the mortality at 100 g/ha in data set [2] is at least 80%.
As to `CCc1ccc(-c2ccc(Cl)cc2)cc1C1=C(O)C2CCCC(C1=O)C2=O` (centres unmarked), the melting point is 79.5 °C.
`CCc1ccc(-c2ccc(F)cc2)cc1C1=C(O)[C@@]2(C)CC[C@H](O2)C1=O` registered a melting point of 165 to 167 °C.
The same measure, in the same setting: the figure for `CCc1ccc(-c2ccc(Cl)cc2)cc1C1=C(O)C(C)(C)OC(C)(COC)C1=O` (centres unmarked) is 123 to 124 °C.
